Data from paper PMC6326523, “A high-throughput screen to identify novel small molecule inhibitors of the Werner Syndrome Helicase-Nuclease (WRN)” (PLoS ONE, 2019).

Columns and labels:
[1] = molecular target: T1, GST-WRN500-946 helicase fragment (Homo sapiens, UniProt Q14191); test: Radiometric helicase assay with GST-WRN500-946 fragment (LOPAC hit validation); assay type: biochemical; settings: GST-WRN500-946 20 nM; FORKR 0.5 nM; increasing concentrations
T1 construct: made in house

HeLa 1.2.11 cells = test: HeLa cell proliferation assay (WST-1); assay type: cell-based, human; settings: 50 μM, 3-day time course
Experimental: WRN inhibitors were diluted in DMSO to a concentration 100-fold higher than their final concentrations. U2-OS cells in culture were counted, spun down and resuspended to 35,000 cells/mL in DMEM with 10% FBS and Pen/Strep antibiotic. For each cell condition, 15 μL of DMSO or inhibitor was added to 1.5 ml of U2-OS cells in DMEM or DMEM alone. One hundred μL of each cell condition was plated in triplicate on each of four 96-well plates representing days 0–3. Ten μL of WST-1 cell proliferation reagent (Roche) was added to the day 0 plate and readings were taken 2 hr later using a plate reader set to 450 nm. WST-1 cell proliferation reagent was added to plates on days 1–3 and readings were taken after 2 hr incubation. Percent cell proliferation was normalized to cells in the presence of DMSO with the background OD450 of DMEM with each drug subtracted out. […]
Fig 9 Effects of WRN helicase inhibitors on cancer cell proliferation. (A) Cell proliferation of HeLa 1.2.11 cells treated with 50 μM NCGC00029283-03, NCGC00063279-03, NCGC00357377-01 and NSC 617145 (positive control) or vehicle (DMSO) on Day 0 and Day 3 as measured using the WST-1 cell proliferation reagent. […]

T1 sequence (Q14191 500-946): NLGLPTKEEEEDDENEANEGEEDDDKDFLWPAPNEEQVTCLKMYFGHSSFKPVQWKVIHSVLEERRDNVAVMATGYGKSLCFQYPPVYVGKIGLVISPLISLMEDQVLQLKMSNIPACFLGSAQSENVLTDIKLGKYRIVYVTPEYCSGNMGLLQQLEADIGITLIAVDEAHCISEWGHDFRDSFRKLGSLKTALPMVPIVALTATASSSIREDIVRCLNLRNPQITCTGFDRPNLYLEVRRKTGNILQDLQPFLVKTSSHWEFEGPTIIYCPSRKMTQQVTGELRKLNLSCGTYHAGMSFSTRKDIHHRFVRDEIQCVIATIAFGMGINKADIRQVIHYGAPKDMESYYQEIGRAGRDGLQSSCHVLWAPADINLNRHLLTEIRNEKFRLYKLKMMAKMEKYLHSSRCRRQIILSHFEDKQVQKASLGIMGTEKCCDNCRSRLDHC

N#CSc1ccc2oc(C3=NCCN3)cc2c1 [NCGC00015168-04]
Inhibition of GST-WRN500-946 unwinding of radiolabeled FORKR [1]: inhibition

COc1cc2nc(N3CCCN(C)CC3)nc(NC3CCN(Cc4ccccc4)CC3)c2cc1OC [NCGC00185850-03]
Inhibition of GST-WRN500-946 unwinding of radiolabeled FORKR [1]: inhibition

CC(C)(CN1C(=O)C(Cl)=C(Cl)C1=O)CN1C(=O)C(Cl)=C(Cl)C1=O [NSC 617145, reference compound]
Effect on HeLa 1.2.11 cell proliferation (HeLa 1.2.11 cells): very potent inhibition
